From patent US9072729B2, “Method for treating fibrosis and cancer with imidazolium and imidazolinium compounds” (Agency for Science, Technology and Research, priority 2008, dated 2015)

Key:
HLE cells [1] = assay: Growth inhibition assay (MTT), HLE; assay type: cell-based, human; details: Homo sapiens
Procedure: The effect of IMSs (IBN-15, IBN-19, IBN-24, IBN-25 and IBN-32) on the proliferative properties of p53 mutant cell line HLE was examined. The cytotoxicity activity and proliferation inhibition of IMSs in tumor cells were measured by MTT. […] The control experiments with DMSO alone (0.05% v/v) had no effect on cell proliferation. […] (Table 4) Microscopic observation on the cell cultures visually confirmed the inhibition on cell proliferation by IMSs. (FIG. 35)

HLE cells [2] = assay: Cell cycle analysis (PI flow cytometry); assay type: cell-based, human; details: 72 h; for cells in the S phase: at respective IC-50, control 24%; for cells in the G2/M phase: at respective IC-50, control 30%; for cells in the G1 phase: at respective IC-50, control 50%
Procedure: FIG. 37. IMSs arrest Hepatocarcinoma cells. Cells were treated with vehicle and IBN 15, IBN 19, IBN 24, IBN 25 and IBN 32 for 72 h, and cell cycle distribution was assessed by flow cytometry. A) Example FACS profiles of propidium iodide-stained control cells, and cells treated with IMSs respectively. B) % of cells in cell cycle phase C) % of cells in subG0 population. Each value is the mean±S.D. of three determinations.
To perform cell cycle distribution analysis, 4×10^5 cells were plated in 10 cm dish. The cells (70% confluence) were serum-starved for 24 h to synchronize them in the G0 phase of the cell cycle. After 24 h incubation, the cells were replaced with fresh 10% DMEM medium and then treated 60 μM of IBN-15, 90 μM of IBN-19, 90 μM of IBN-24, 30 μM of […] and 20 μM of IBN-32) and 0.045% DMSO as control for 72 h. The floating and trypsinized adherent cells were collected and washed with PBS. The cell pellets were resuspended in 1 ml of PBS and fixed by the addition of 70% ice-cold ethanol and stored at −20° C. After incubation for 24 hr, the cells were re-pelleted by centrifugation, the cells were washed once with PBS and resuspended in 0.1 mL of PBS containing 100 μg/ml of RNase and then incubated at 37° C. for 15 min. Finally, the cells were stained with 0.5 ml of PI solution (100 μg/mL in PBS) for 30 min. Cell cycle distribution was detected by a BD FACS array flow cytometer (Becton Dickinson). Cells with sub-G0 DNA were classified as apoptotic cells.

HLE cells [3] = assay: Apoptosis assay (Annexin V-FITC/PI flow cytometry); assay type: cell-based, human; details: 72 h, IBN-15 60 μM, IBN-19 90 μM, IBN-24 90 μM, IBN-25 30 μM, IBN-32 20 μM, DMSO 0.045%
Procedure: FIG. 36. IMSs induce apoptosis in Hepatocarcinoma cells. A) Cells were treated with vehicle and IBN 15, IBN 19, IBM 24, IBN 25 and IBN 32 for 72 h, and apoptosis was quantified using Annexin V-FITC/PI staining followed by flow cytometric analysis. 10,000 cells were detected for every sample. Living cells are in the bottom left quadrants (FITC− and PI−), early apoptotic cells in the bottom right quadrants (FITC+ and PI−), and late apoptotic cells in the upper right quadrants (apoptotic FITC+ and PI+). B) The percentage of apoptotic cells with respect to different IMSs.
To determine apoptosis analysis, 4×10^5 cells were plated in 10 cm dish. […] The floating and trypsinized adherent cells were collected and the apoptosis was quantified using Annexin V-FITC reagent (BD Biosciences Pharmingen) and PI (Invitrogen) following the manufacturer's protocol. Briefly, the cells were washed twice with cold PBS and then resuspend cell in 100 μl of × binding buffer containing a 10 μl of Annexin V-FITC (BD-Pharminagen) and 2 μl of PI from the stock of 100 μg/ml. The cells were gently vortexed and incubated for 15 min at room temperature in the dark. Subsequently 400 μl of 1× binding buffer were added to each tube, and the samples were immediately analyzed by FACScan flow cytometer (Becton Dickinson). The fluorescent signals of the Annexin-V conjugate and PI were detected at channels of fluorescence intensity FL1 and FL2 (BD LSR II with software BD).
Cells undergoing apoptosis would stain positive for Annexin and negative for PI (quadrant 4, Q4). Cells which stained positive for both Annexin V-FITC and PI (Q2) are either at the end stage of apoptosis or undergoing necrosis, and those which stained negative for both Annexin V-FITC and PI (Q3) were alive or undergoing undetectable apoptosis. In contrast, cell debris stained only for PI (Q1).

[4] = test system: p53 signaling pathway-associated gene expression in HLE cells; assay: Real-time PCR array of p53 signaling pathway-associated genes; assay type: cell-based, human; details: 48 h
Procedure: FIG. 42. Real-Time PCR array analysis of p53 signaling pathway-associated gene expression. (A) Anti-apoptotic genes. (B) Growth inhibition gene SESN2. (C) Cell cycle check point genes. (D) Cell proliferation genes. (E) DNA repair gene ATM. The relative level of gene expression was normalized with housekeeping gene GAPDH. Values are expressed as mean±standard deviation.
Cells were seeded at a density of 4×10^5 cells per dish in 10 cm dishes. Next day, the cells were exposed to 90 uM of IBN-19, 90 uM of IBN-24, 40 uM of IBN-25 and 0.045% of DMSO (Dimethyl Sulphoxide) as the control. After 48 hrs, total RNAs were extracted from the cells using Nucleospin RNA II kit as per the manufacturer's istructions. RNA quality and yield were evaluated after spectrophotometer measurements.
The human apoptosis PCR array (RT^2 Profiler) was used to analyze mRNA levels of 84 key genes involved in apoptosis, in a 96-well format, according to the manufacturer's instructions (Super Array Bioscience). First-strand cDNA was synthesized with 1 μg of RNA by using a PCR array first strand-synthesis kit (C-03; Super array Bioscience). This kit uses reverse transcriptase (Power Script; Super array Bioscience) and a combination of random primers and oligo dT primers. The total volume of the reaction was 20 μL diluted to 100 μL. PCR reactions were performed using real-time PCR (79s00HT 96-well block with RT^2 Real-Time SYBR Green PCR master mix PA-012; Applied Biosystems Instruments 7500). The total volume of the PCR reaction was 25 μl. An equivalent of […] of RNA was applied to the PCR reaction. The thermocycler parameters were 95° C. for 10 minutes, followed by 40 cycles of 95° C. for 15 seconds and 60° C. for 1 minute. Relative changes in gene expression were calculated using the ΔΔCt (cycle threshold) method. An average of the number of cycles of the five housekeeping genes, GAPDH, Actin-β, β2m, Hprt1, and Rpl13d, was used to normalize the expression between samples. The expression data are presented as fold regulation. GAPDH gene expression levels were utilized as an internal control to normalize the data. Reported fold changes in expression are the ratios of treatment over control values.
To obtain more information on how the IMSs influence other gene expression in the HLE cells, 84 genes related to p53 signal transduction were profiled by using the RT^2 Profiler array (Super Array Bioscience) (FIG. 42A, B, C, D, E). The array includes keys genes relevant to p53, apoptosis, cell cycle, cell growth, proliferation, differentiation, and DNA repair.

[5] = test system: caspase 3, caspase 9 and PARP; assay: Western blot of caspase-3, caspase-9 and PARP cleavage in HLE; assay type: cell-based, human; details: 72 h
Procedure: FIG. 38. IMSs, induce cleavage of caspase-3, caspase-9 and PARP. Western blot analysis for the effect of IBN 15, IBM 19, IBN 24, IBM 25, IBN 32 on the cleavage of caspase-3, Caspase-9 and PARP in HLE cells after 72 h exposure to indicated doses of IMSs.
The HLE cells were seeded at a density of 4×10^5 in 10 cm dish. After 24 h incubation, the cells were replaced with fresh 10% DMEM medium and then treated with 60 μM of IBN-15, 90 μM of IBN-19, 90 μM of IBN-24, 30 μM of IBN-25 and 20 μM of IBN 32 and 0.045% DMSO as control for 72 h. Whole cell lysates were prepared on day 3 with lysis buffer [125 mM Tris (pH 7.4), 2% Sodium dodecyl sulfate, 10% glycerol, 6M urea and a protease inhibitor cocktail (Sigma) and 0.02% Bromophenol blue]. The lysates were sonicated for 30 seconds and then heated for 5 mins at boiling temperature. The lysates were centrifuged at 13000 rpm for 10 mins and the protein concentration of each sample was estimated using the BCA protein assay. The lysates was then mixed with 5% 2-mercaptoethanol and stored at −80 C. For Western blotting, samples containing 50 μg of total cell lysate were loaded onto a SDS-PAGE and subjected to electrophoresis. Proteins were transferred to a nitrocellulose membrane and then blocked with 5% non-fat dry milk in Tris buffer saline containing 0.1% Tween 20 for 60 min at 37 C. The membranes were probed with a primary antibody overnight at 4 C in TEST containing 5% Bovine serum albumin. Then the membrane was incubated with horseradish peroxidase (HRP)-conjugated anti-rabbit or anti-mouse secondary antibodies (GE Health care, Chalfont St Giles, UK). Detection was performed with enhanced chemiluminescence (ECL) reagent (Amersham Arlington Heights, Ill.) according to the manufacturer's protocol. Rabbit polyclonal Phospho-p53 (Ser15, 20, 46, 392), anti-caspase-9, anti-caspase-3, anti-PARP antibodies were purchased from Cell Signaling Technology, Inc. (Beverly, Mass., USA). Antibodies against p53 and p21 were purchased from Santa Cruz Biotechnology (Santa Cruz, Calif., USA).

MKN 28 = assay: Growth inhibition assay (MTT), MKN 28; assay type: cell-based, human; details: MKN 28, 72 h
Procedure: (§3) The percentage of growth inhibition was determined by using a MTT assay to measure viable cells. For the MTT assay, 1×10^3 cells per well were cultured in 96-well plates and treated with 0 to 100 μM of various types of IMSs for 72 h. After incubation for specified times at 37° C. in a humidified incubator, culture medium replaced with 10 μL of MTT reagent (5 mg/mL) contains 100 μL medium was added to each well and further incubated for 4 h. The reaction was stopped by adding 100 μL of DMSO. Absorbance was measured at 570 nm on a micro plate reader (SpectroMax 190, Molecular Devices). Data were presented from three separate experiments, and the percentage of IMSs induced cell growth inhibition was determined where DMSO-treated cells (control) were taken as 100%.
(§4) First, the cytotoxic effect of these drugs on these cells was investigated using the MTT assay. Cells were seeded into 96 well plates and treated with increasing concentrations of these synthetic organic molecules for 72 h, and then the cytotoxic effect was measured.

MCF-10A = assay: Growth inhibition assay (MTT), MCF-10A; details: 72 h
Procedure: as §3, §4

MDAMB231 = assay: Growth inhibition assay (MTT), MDAMB231; assay type: cell-based, human; details: MDAMB231, 72 h
Procedure: as §3, §4

HLE cells [6] = assay: Annexin V staining and flow cytometry, HLE; assay type: cell-based, human; details: 24 hr, TRAIL 100 ng/ml
Procedure: (§1) FIG. 22. […] HLE or HepG2 cells were incubated with DBZIM of various concentrations for 6 hr, and assayed for caspase 3/7 activity and LDH releasing (expressed as % toxicity). DBZIM induced apoptosis as characterized by annexin V staining using flow cytometer in HLE (E) and HepG2 (F). Scatter plot and histogram gave the representative information on the cell population distribution while bar graphs quantified the percentage of apoptotic cells from the histogram. HLE and HepG2 cells were treated by DBZIM of various concentrations for 24 hr before harvesting for annexin V staining and flow cytometric analysis.
(§2) HLE and HepG2 cells were treated with various concentrations of DBZIM or TRAIL (100 ng/ml) for 24 hr, harvested and labeled with Annexin V-FITC (BioVision, CA, USA). The labeled cells were analysed by flow cytometry FACSCalibur ([…], NJ, USA) and CellQuest software. Cells showing green staining in the plasma membrane were considered as apoptotic cells.

HepG2 cells = assay: Annexin V staining and flow cytometry, HepG2; assay type: cell-based, human; details: HepG2, 24 hr; TRAIL 100 ng/ml
Procedure: as §1, §2

| Molecule | IC50 (HLE cells [1]; 72 h) [µM] | IC50 (HLE cells [1]; 120 h) [µM] | cells in the S phase (HLE cells [2]) [%] | cells in the G2/M phase (HLE cells [2]) [%] | cells in the G1 phase (HLE cells [2]) [%] | cell apoptosis (Q2) (HLE cells [3]) [%] | also measured |
| --- | --- | --- | --- | --- | --- | --- | --- |
| [Br-].c1ccc(Cn2c[n+](Cc3ccccc3)cc2-c2ccccc2)cc1 [IBN-15, 1,3-Dibenzyl-5-phenylimidazolium bromide] | 60 | 20 | 19.7 | 21 | 42 | 33 | – |
| Cc1n(Cc2ccccc2)cc[n+]1Cc1ccccc1C(F)(F)F.[Cl-] [IBN-25, 1-benzyl-3-(2-trifluoromethylbenzyl)-2-methylimidazolium chloride] | 30 | 35 | 14.3 | 19.4 | 34.5 | – | anti-apoptotic gene BCl-2 expression [4]: significantly down regulated; cell proliferation genes (Mcl1, Egr1, Foxo3, Jun, Mdm4, Nf1, Prm1D, Sesn1, E2f11, Prkca, Brca1) [4]: significantly down regulated; increase of ATM gene expression vs control ([4]; IBN-19 90 uM, IBN-24 90 uM, IBN-25 40 uM): 9 folds; activation and cleavage of caspase 3, caspase 9 and PARP [5]: induced significant activation and cleavage |
| [Br-].c1ccc(CCn2cc[n+](CCc3ccccc3)c2)cc1 [IBN-32, 1,3-di(2-phenylethyl)-imidazolium bromide] | 20 | 20 | 14.6 | 18.9 | 32.3 | 18 | – |
| Cc1n(Cc2ccccc2)cc[n+]1Cc1ccccc1.[Br-] [compound C, 1,3,-Dibenzyl-2-methylimidazolium bromide] | – | – | – | – | – | – | IC50 (MKN 28): 35 µM; IC50 in normal breast epithelial cells (MCF-10A): no IC50; IC50 (MDAMB231): 35 µM |
| TRAIL: TNF-Related Apoptosis Inducing Ligand, used as a positive control for apoptosis (protein, UniProt P50591 1-281, looked up) Tumor necrosis factor ligand …: MAMMEVQGGPSLGQTCVLIVIFTVLLQSLCVAVTYVYFTNELKQMQDKYSKSGIACFLKEDDSYWDPNDEESMNSPCWQVKWQLRQLVRKMILRTSEETISTVQEKQQNISPLVRERGPQRVAAHITGTRGRSNTLSSPNSKNEKALGRKINSWESSRSGHSFLSNLHLRNGELVIHEKGFYYIYSQTYFRFQEEIKENTKNDKQMVQYIYKYTSYPDPILLMKSARNSCWSKDAEYGLYSIYQGGIFELKENDRIFVSVTNEHLIDMDHEASFFGAFLVG | – | – | – | – | – | – | apoptosis (annexin V staining) (HLE cells [6]): not in HLE cells; apoptosis (annexin V staining) (HepG2 cells): only induced apoptosis in HepG2 |
